Like-named read-outs stand apart in the source and are kept apart here.
Legend:
[1] = test system: influenza A virus strain A/WSN/33 (H1N1); assay: microbe, parasite or virus in culture; assay type: cell-based; conditions: for EC50: Influenza A virus, MDCK, 48 h
MDCK cells = assay: Cytotoxicity assay (WST-8) with no viral infection; conditions: 300 μg/mL, uninfected MDCK cells, Figure 3
influenza virus = assay type: cell-based; conditions: 5 μg/mL, influenza virus-infected MDCK cells, data not shown

Row | Compound | Effect on cell survival rate of virus-infected cells (effective / ineffective) [1] | EC50 [1] [µM] | further results
1 | O=C(/C=C/c1ccc(O)c(O)c1)O[C@@H]1C[C@](O)(C(=O)O)C[C@@H](OC(=O)/C=C/c2ccc(O)c(O)c2)[C@H]1OC(=O)/C=C/c1ccc(O)c(O)c1 [3,4,5-Tricaffeoylquinic acid, 3,4,5-tricaffeoylquinic acid] | effective | 115 | Cell survival rate of infected cells at 300 μg/mL [1]: dropped to nearly zero; Effect on cell survival of infected cells at 100 μg/mL [1]: effective
2 | O=C(/C=C/c1ccc(O)c(O)c1)O[C@@H]1[C@H](O)C[C@@](O)(C(=O)O)C[C@H]1OC(=O)/C=C/c1ccc(O)c(O)c1 [3,4-Dicaffeoylquinic acid] | effective | 81.1 ± 2.9 | EC50 ([1]; read-out: EC50 value on the cell survival): 41.9 µg/mL
3 | O=C(/C=C/c1ccc(O)c(O)c1)O[C@@H]1C[C@](O)(C(=O)O)C[C@@H](OC(=O)/C=C/c2ccc(O)c(O)c2)[C@H]1O [3,5-Dicaffeoylquinic acid, 3,5-dicaffeoylquinic acid] | effective | 208 | –
4 | O=C(/C=C/c1ccc(O)c(O)c1)O[C@H]1[C@H](O)C[C@](O)(C(=O)O)C[C@H]1OC(=O)/C=C/c1ccc(O)c(O)c1 [4,5-Dicaffeoylquinic acid, 4,5-dicaffeoylquinic acid] | effective | 281 | –
5 | O=C(O)/C=C/c1ccc(O)c(O)c1 [Caffeic acid, caffeic acid] | effective | 191 | Cell toxicity (MDCK cells): exhibited cell toxicities; Cell survival rate of infected cells at 300 μg/mL [1]: dropped to nearly zero; Effect on cell survival of infected cells at 100 μg/mL [1]: effective
6 | O=C(/C=C/c1ccc(O)c(O)c1)O[C@@H]1C[C@](O)(C(=O)O)C[C@@H](O)[C@H]1O [Chlorogenic acid] | effective | 342 | Cell toxicity (MDCK cells): exhibited cell toxicities; Cell survival rate of infected cells at 300 μg/mL [1]: dropped to nearly zero; Effect on cell survival of infected cells at 100 μg/mL [1]: effective
7 | O=C(O)[C@]1(O)C[C@@H](O)[C@@H](O)[C@H](O)C1 [Quinic acid, quinic acid] | ineffective | > 1560 | –
8 | CC(C)=CCc1cc(/C=C/C(=O)O)cc(CC=C(C)C)c1O [artepillin C] | did not have any cell surviving activity | – | –
9 | CC(C)=CCc1cc(/C=C/C(=O)O)ccc1O [drupanin] | did not have any cell surviving activity | – | –
10 | COc1ccc(-c2oc3cc(O)cc(O)c3c(=O)c2O)cc1 [kemferide] | did not have any cell surviving activity | – | –
11 | O=C(O)/C=C/c1ccc(O)cc1 [p-coumaric acid] | did not have any cell surviving activity | – | –
12 | NC(=O)c1ncn([C@@H]2O[C@H](CO)[C@@H](O)[C@H]2O)n1 [ribavirin] | – | – | Quantity of mRNA for HA relative to mRNA for GAPDH (influenza virus): less than 10%

From paper PMC3057164, “Caffeoylquinic Acids Are Major Constituents with Potent Anti-Influenza Effects in Brazilian Green Propolis Water Extract” (Evidence-based Complementary and Alternative Medicine : eCAM, 2011)
